# In ChEMBL document CHEMBL1131783, “Prodrugs of CL316243: a selective beta3-adrenergic receptor agonist for treating obesity and diabetes” (Bioorg Med Chem Lett, 1999):
# Columns and labels:
# [1] = Partition coefficient (logP); format: physicochemical; conditions: octanol/water
# [2] = target: Beta-3 adrenergic receptor (Rattus norvegicus) (UniProt P26255); assay: Beta-3-adrenergic activity measured by percent response against free fatty acid (FFA) in rat plasma at a dosage of 0.1 mg/kg; format: functional, organism-based; set-up: dose 0.1 mg/kg
# [3] = organism: Mus musculus; assay: The compound was evaluated for the % glucose lowering along with drug intake over the test period of 5-7 days in mice
# [4] = target: Beta-3 adrenergic receptor (Rattus norvegicus) (UniProt P26255); assay: Effective dose required for beta-3-adrenergic activity against free fatty acid (FFA) in rat plasma; format: functional
# [5] = target: Beta-3 adrenergic receptor (Rattus norvegicus) (UniProt P26255); assay: Compound was evaluated for the beta-3-adrenergic activity by measuring % response against free fatty acid (FFA) in rat plasma at a dosage of 0.1 mg/kg; format: functional, organism-based; set-up: dose 0.1 mg/kg
# Beta-3 adrenergic receptor (Rattus norvegicus), sequence (P26255 whole entry): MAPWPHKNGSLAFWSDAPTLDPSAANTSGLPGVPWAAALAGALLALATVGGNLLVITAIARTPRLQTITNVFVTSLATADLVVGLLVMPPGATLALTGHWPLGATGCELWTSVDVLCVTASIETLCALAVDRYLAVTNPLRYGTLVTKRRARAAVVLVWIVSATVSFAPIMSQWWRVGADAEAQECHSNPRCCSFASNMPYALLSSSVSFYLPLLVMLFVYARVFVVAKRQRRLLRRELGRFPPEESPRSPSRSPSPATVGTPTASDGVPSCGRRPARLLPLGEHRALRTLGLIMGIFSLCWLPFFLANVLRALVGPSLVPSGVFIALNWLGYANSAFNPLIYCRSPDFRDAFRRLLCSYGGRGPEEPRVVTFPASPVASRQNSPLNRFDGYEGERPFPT
logP [1],Response [2] [%],ED50 [4] [mg/kg],Compound,ED50 [3] [mg/kg],Response [5] [%]
1.29,100,0.061,CC(C)OC(=O)C1(C(=O)OC(C)C)Oc2ccc(C[C@@H](C)NC[C@H](O)c3cccc(Cl)c3)cc2O1,0.056,
2.34,83,0.071,C[C@H](Cc1ccc2c(c1)OC(C(=O)OCC1CCC1)(C(=O)OCC1CCC1)O2)NC[C@H](O)c1cccc(Cl)c1,0.128,
3.77,109,0.026,CC(C)CCOC(=O)C1(C(=O)OCCC(C)C)Oc2ccc(C[C@@H](C)NC[C@H](O)c3cccc(Cl)c3)cc2O1,0.11,
3.21,71,0.08,C[C@H](Cc1ccc2c(c1)OC(C(=O)OCCC(C)(C)C)(C(=O)OCCC(C)(C)C)O2)NC[C@H](O)c1cccc(Cl)c1,0.201,
,77,0.076,C[C@H](Cc1ccc2c(c1)OC(C(=O)OCCc1cccs1)(C(=O)OCCc1cccs1)O2)NC[C@H](O)c1cccc(Cl)c1,0.208,
,95,0.071,C[C@H](Cc1ccc2c(c1)OC(C(=O)OCCc1ccccc1)(C(=O)OCCc1ccccc1)O2)NC[C@H](O)c1cccc(Cl)c1,0.156,
2.16,134,0.027,C[C@H](Cc1ccc2c(c1)OC(C(=O)OCC(C)(C)C)(C(=O)OCC(C)(C)C)O2)NC[C@H](O)c1cccc(Cl)c1,0.028,
,46,,C[C@H](Cc1ccc2c(c1)OC(C(=O)OCc1cccc(Cl)c1)(C(=O)OCc1cccc(Cl)c1)O2)NC[C@H](O)c1cccc(Cl)c1,,
,14,,C[C@H](Cc1ccc2c(c1)OC(C(=O)OCCOC(C)(C)C)(C(=O)OCCOC(C)(C)C)O2)NC[C@H](O)c1cccc(Cl)c1,,
,42,,COC(=O)C(C)OC(=O)C1(C(=O)OC(C)C(=O)OC)Oc2ccc(C[C@@H](C)NC[C@H](O)c3cccc(Cl)c3)cc2O1 (stereo partly drawn),,
,63,,CC(C)COCCOC(=O)C1(C(=O)OCCOCC(C)C)Oc2ccc(C[C@@H](C)NC[C@H](O)c3cccc(Cl)c3)cc2O1,,
,24,,C[C@H](Cc1ccc2c(c1)OC(C(=O)OCC1CCCO1)(C(=O)OCC1CCCO1)O2)NC[C@H](O)c1cccc(Cl)c1 (stereo partly drawn),,
,59,,C[C@H](Cc1ccc2c(c1)OC(C(=O)OC1CCCCC1)(C(=O)OC1CCCCC1)O2)NC[C@H](O)c1cccc(Cl)c1,,
,26,,C[C@H](Cc1ccc2c(c1)OC(C(=O)OCCOc1ccc(Cl)cc1)(C(=O)OCCOc1ccc(Cl)cc1)O2)NC[C@H](O)c1cccc(Cl)c1,,
,78,,CC(C)OC(=O)COC(=O)C1(C(=O)OCC(=O)OC(C)C)Oc2ccc(C[C@@H](C)NC[C@H](O)c3cccc(Cl)c3)cc2O1,,
,65,,COCCOC(=O)C1(C(=O)OCCOC)Oc2ccc(C[C@@H](C)NC[C@H](O)c3cccc(Cl)c3)cc2O1,,
,2,,CCC(=O)OC(C)OC(=O)C1(C(=O)OC(C)OC(=O)CC)Oc2ccc(C[C@@H](C)NC[C@H](O)c3cccc(Cl)c3)cc2O1 (stereo partly drawn),,
,56,,CCC(CC)COC(=O)C1(C(=O)O)Oc2ccc(C[C@@H](C)NC[C@H](O)c3cccc(Cl)c3)cc2O1 (stereo partly drawn),,
,86,,CCC(CC)COC(=O)C1(C(=O)OCC(CC)CC)Oc2ccc(C[C@@H](C)NC[C@H](O)c3cccc(Cl)c3)cc2O1,,
,10,,CCC(=O)OCOC(=O)C1(C(=O)OCOC(=O)CC)Oc2ccc(C[C@@H](C)NC[C@H](O)c3cccc(Cl)c3)cc2O1,,

Compound,logP [1],Response [2] [%],ED50 [4] [mg/kg],ED50 [3] [mg/kg],Response [5] [%]
COCCOC(=O)C1(C(=O)O)Oc2ccc(C[C@@H](C)NC[C@H](O)c3cccc(Cl)c3)cc2O1 (stereo partly drawn),,85,,,
CCOC(=O)C1(C(=O)OCC)Oc2ccc(C[C@@H](C)NC[C@H](O)c3cccc(Cl)c3)cc2O1,0.35,114,0.034,0.1,
C[C@H](Cc1ccc2c(c1)OC(C(=O)[O-])(C(=O)[O-])O2)NC[C@H](O)c1cccc(Cl)c1.[Na+].[Na+],0.046,,0.24,0.54,2
